Patent US20140186329A1, “POLYPHENOL ANALOGS TO TREAT ISCHEMIA” (priority 2011, published 2014)
Where two headings read alike, the source gives them in different places.

Tests used:
[1] = test system: primary mouse cortical neurons; test: Primary cortical cell glutamate excitotoxicity assay; assay type: cell-based; conditions: 10 μM glutamate, compound 100 nM
Procedure: (§1) FIG. 5 illustrates pharmacological effects of Baicalein on cultured cells. (A) Trophic factor withdrawal. Primary cortical neurons are prepared from 18-day-old rat embryos, and cultured at low cell density 1×10^6/35 mm dish, in serum containing medium with Baicalein (10-10,000 nM), and viability assayed 2 days later using a live-dead assay. (B) Excitotoxicity assay was done with E14 mouse primary cortical neuron cultures. After 11 days of culture, cells were exposed to 10 μM glutamate for 10 min, followed by the addition of varying concentrations of Baicalein (0.2-5 μM). Cell viability was determined 24 hr later with a standard MTT assay. (C) PC12 cells were glucose-deprived then were incubates in the absence or presence of Baicalein. Cell viability was determined 24 hr later using the MTT assay. (D) RCG-5 nerve cells were treated with 30 μM iodoacetic acid for 2 hr in the presence or absence of 5-25 μM Baicalein. In some experiments, Baicalein was added 2 hr after the ischemic event. Cell survival (%) was measured after 24 hr by the MTT assay. Baicalein added before (□) or 2 hr after ([…]) ischemia.
Primary cultures of cortical neurons that die due to excitotoxicity were prepared as described previously. Briefly, BALB/c mouse embryo cortices were minced and treated with 0.1% trypsin for 20 min. After centrifugation, the cells are resuspended in 827 Neurobasal medium (Invitrogen) plus 10% fetal calf serum and are dissociated by repeated pipetting through a 1 mL blue Eppendorf pipette tip. Then the cells are plated at 1×10^5 cells per well in 96-well poly-L-lysine and laminin-coated microtiter plates (Becton Dickinson, Bedford, Mass., USA) in 827 Neurobasal plus 10% fetal calf serum and 20% glial growth-conditioned medium. Two days later the medium is aspirated and replaced by serum-free 827 Neurobasal medium plus 10 μg/mL cytosine arabinoside. The cultures are used without media change 11 days after plating and are essentially free of astrocytes. They are exposed to 10 μM glutamate followed by varying concentrations of the compounds. Cell viability is determined 24 h later using the fluorescent live/dead assay. Glial conditioned medium is prepared from confluent rat astrocyte cultures. The cells are washed twice with serum-free medium and incubated for 2 days in serum-free Neurobasal medium to produce the growth conditioned medium.
(1) ≧80% cell survival in mouse HT22 hippocampal cells in the presence of 20 μM iodoacetic acid (IAA) (in vitro ischemia model). See, Maher, et al., Brain Res. 2007, 1173:117-25. (2) ≧35% cell survival in primary mouse cortical neurons in the presence of 10 μM glutamate (in vitro excitotoxicity assay). See, Ishige, et al., Free Radic Biol Med, 2001, 30(4): p. 433-46.

[2] = test system: HT22 cells; test: In vitro ischemia assay (HT22 cell IAA assay, MTT); assay type: cell-based, mouse; conditions: 20 μM IAA; for EC50: read-out: HT22 Cell IAA assay EC50; for percent protection from IAA-induced cell death at 0.1 µM: HT-22, compound 100 nM
How it was run: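 Mouse HT22 hippocampal cells in DMEM/7.5% DFCS exposed 2 hr to 20 μM iodoacetic acid with or without derivative, then 20 hr in IAA-free medium still containing derivative. Viability by MTT (2.5 μg/ml, 4 hr, 37 °C), absorbance at 570 nm.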

[3] = test system: PC12 cells; test: Glucose starvation; assay type: cell-based; conditions: MTT 24 hr
Procedure: as §1, with “ischemia. […] When these cells are starved for glucose, there is approximately 70% maximal survival in the presence of NGF. Baicalein promotes over 80% survival (FIG. 5C).” for “ischemia.”

O=c1cc(-c2cc(O)c(O)c(O)c2)oc2ccccc12 [PM-008, 3′,4′,5′-trihydroxyflavone]
Primary Cortical Cell assay-Glutamate (% protection @ 100 nM) [1]: 100% | EC50 ([2]; HT22 cells): 42 nM | percent protection from IAA-induced cell death at 0.1 µM ([2]; Mus musculus): 88%

Cc1ccc2oc(-c3ccc(O)c(O)c3)c(O)c(=O)c2c1 [PM-010, 2-(3,4-dihydroxyphenyl)-3-hydroxy-6-methyl-4H-chromen-4-one]
Primary Cortical Cell assay-Glutamate (% protection @ 100 nM) [1]: 65% | EC50 ([2]; HT22 cells): 46 nM | percent protection from IAA-induced cell death at 0.1 µM ([2]; Mus musculus): 89%

CCCc1ccc2oc(-c3ccc(O)c(O)c3)c(O)c(=O)c2c1 [PM-012, 2-(3,4-dihydroxyphenyl)-3-hydroxy-6-propyl-4H-chromen-4-one]
Primary Cortical Cell assay-Glutamate (% protection @ 100 nM) [1]: 82% | EC50 ([2]; HT22 cells): 61 nM | EC50 ([2]; Mus musculus, HT-22, HT22 cells): 38 nM | percent protection from IAA-induced cell death at 0.1 µM ([2]; Mus musculus): 80%

CCc1ccc2oc(-c3ccc(O)c(O)c3)c(O)c(=O)c2c1 [PM-013, 2-(3,4-dihydroxyphenyl)-6-ethyl-3-hydroxy-4H-chromen-4-one]
Primary Cortical Cell assay-Glutamate (% protection @ 100 nM) [1]: 51% | EC50 ([2]; HT22 cells): 61 nM | percent protection from IAA-induced cell death at 0.1 µM ([2]; Mus musculus): 81%

NGF: NGF, comparator in the PC12 glucose starvation assay
survival of glucose-starved cells [3]: approximately 70%
